Literature values, collected in patent publication US6552040B1, “Use of nitroxides in wound healing and in the prevention of photodamage” (priority 1999, dated 2003).

How the values were obtained:
[1] = tested on: UVB radiation-induced mouse skin damage; conditions: mice, topical solution prior to UVB exposure, versus untreated mice
[2] = tested on: radiation-induced alopecia; conditions: field of heavily irradiated skin
[3] = in vitro and in vivo

In the case of Cc1cc(C(C)(C)C)c(O)c(C(C)(C)C)c1 [BHT], the “protection against UVB radiation skin damage” value [1] is listed as “no significant protection”.
For CC1(C)CC(O)CC(C)(C)N1[O] [Tempol, 4-hydroxy-2,2,6,6-tetramethyl-piperidinyloxy, free radical], the “protection against radiation-induced alopecia” value [2] is given as “speeding the recovery of hair growth”, the “protection of mammalian cells from hydrogen peroxide mediated cytotoxicity” value (mammalian cells) is given as “protecting mammalian cells” and the “protection of mammalian cells from superoxide generated from hypoxanthine/xanthine oxidase” value (mammalian cells; superoxide dismutase mimic) is given as “protecting mammalian cells”. The “protection against ionizing radiation” value [3] was “both in vitro and in vivo protection”.
For Cc1c(C)c2c(c(C)c1O)CCC(C)(C(=O)O)O2 (stereo not shown) [Trolox], the “protection against UVB radiation skin damage” value [1] is listed as “significantly less damage”.
For Cc1c(C)c2c(c(C)c1O)CC[C@@](C)(CCC[C@H](C)CCC[C@H](C)CCCC(C)C)O2 [alphatocopherol], the “protection against UVB radiation skin damage” value [1] is given as “significantly less damage”.
For O=C1O[C@H]([C@@H](O)CO)C(O)=C1O [ascorbic acid], the “protection against UVB radiation skin damage” value [1] is given as “significantly less damage”.
For CC1=C(/C=C/C(C)=C/C=C/C(C)=C/C=C/C=C(C)/C=C/C=C(C)/C=C/C2=C(C)CCCC2(C)C)C(C)(C)CCC1 [beta-carotene], the “protection against UVB radiation skin damage” value [1] is given as “no significant protection”.
For C=CC(O)C(O)C=C (stereo not shown) [divinylglycol], the “protection against UVB radiation skin damage” value [1] is listed as “no significant protection”.
For N[C@@H](CCC(=O)N[C@@H](CS)C(=O)NCC(=O)O)C(=O)O [glutathione], the “protection against UVB radiation skin damage” value [1] is given as “no significant protection”.
For N[C@@H](Cc1c[nH]cn1)C(=O)O [histidine], the “protection against UVB radiation skin damage” value [1] is given as “no significant protection”.
For OC[C@@H](O)[C@@H](O)[C@H](O)[C@H](O)CO [mannitol], the “protection against UVB radiation skin damage” value [1] is given as “no significant protection”.
In the case of CC(C)(CO)[C@@H](O)C(=O)NCCC(=O)NCCS [pantetheine], the “protection against UVB radiation skin damage” value [1] is listed as “no significant protection”.
For CCCOC(=O)c1cc(O)c(O)c(O)c1 [propyl galate], the “protection against UVB radiation skin damage” value [1] is given as “significantly less damage”.
For NC(N)=O [urea], the “protection against UVB radiation skin damage” value [1] is listed as “no significant protection”.
